The subject of one experiment is M. truncatula. Put plainly: Lateral root emergence in M. truncatula. Format: in vivo, Medicago truncatula. Particulars: 10^−7 M; fold induction relative to the control; FIG. 7. As to the method:
M. truncatula roots were treated with 10^−7 M CO4 or 10^−7 M NS-LCO and the effect on lateral root emergence was measured. The numbers in parentheses indicate the number of plants analyzed. The significance of the difference to the […] control plants, as measured using a t-test, is indicated. The treatments are measured as fold induction relative to the control. Error bars represent the standard error.
Accordingly, the disclosed method is limited in scope to treating non-leguminous plants, or seeds, seedlings or plant parts thereof.

Experiment [1] deals with Rice. The experiment is described as follows: Foliar treatment of rice. Format: in vivo. Particulars: foliar 10^−6 M with 0.05% Silwet L-77; for shoot length: FIG. 12A. As to the method: Rice seeds were surface sterilized using 2% bleach. Seeds were then germinated on damp germination paper in sterile Petri dishes for 5 days. The seedlings were then transferred to Fahraeus medium plates containing damp germination paper. The plates were wrapped in Parafilm®, and the roots part of the plate covered with aluminum foil.
The plants were grown at room temperature under continuous light for 21 days. The plants were then transferred to moistened SUNGRO® soil pots (8×8×10 cm) and grown for 3 days under greenhouse condition. The plants were hydrated by pouring water into the tray underneath the pots.
The soil surface was then covered with plastic wrap to prevent any liquid droplets from contacting the soil. Using painting brushes, the front, and back of the plant leaves were treated with 3 ml of chitin derived compounds (CO4 and CO8) at 10^−6 M or a control (0.5% ethanol), each including 0.05% of Silwet L-77 (surfactant). Eleven plants were treated with each solution. The plants were subsequently grown for 14 days, and the shoot length was measured. Once a week, half-strength Hoagland solution was added into the trays underneath the pots. The plants were grown for another 4 days, and the lengths of the shoot and root systems were measured.

In experiment [2] the test system is Rice. Put plainly: Seed treatment of rice in vitro (plates). Format: in vivo. Particulars: seed coating 10^−6 M; 33 days; vs ethanol control; FIG. 10. As for the experimental part:
Rice seeds were sterilized using 2% bleach. The sterilized seeds were then divided among 3 treatment groups of 10 seeds each into 15 ml falcon tubes. To the control tube, 0.5% ethanol in water was added. To the CO4 tube, 100 μl of 10^−6 M CO4 solution was added. To the CO8 tube, 100 μl of 10^−6 M CO8 solution was added. Each tube was then shaken to coat the seeds. The coated seeds were then placed on sterile Petri dishes in a hood and were left to dry overnight in the hood. The seeds were then germinated on damp germination paper in sterile Petri dishes for 5 days. The resulting seedlings were transferred to Fahräeus medium plates containing damp germination paper, and the plates were wrapped in Parafilm®. The roots part of the plate was covered with aluminum foil. The plants were grown at room temperature under continuous light for 33 days. The length of the shoot and root systems was measured for all plants.

For experiment [3], the system named is pea (the legume Pisum sativum). The experiment is described as follows: Seed treatment of pea in pots. Format: in vivo. The conditions noted are these: seed coating 125 μl of 10^−6 M, 2 weeks after planting, * significant at P < 0.05. As to the method:
Five grams of pea seeds (the legume Pisum sativum) were added to three separate 50 ml tubes. A water solution containing 0.5% ethanol was added to the control tube, 125 μl of 10^−6M CO4 solution was added to the CO4 tube, and 125 μl of 10^−6 M CO8 solution was added to the CO8 tube. Each tube was then shaken to coat the seeds. Seeds were potted immediately following treatment into moistened SUNGRO® potting mix in 4×6×6 cm pots. Plants were watered by pouring water into the tray containing the pots up to about ¾ inch high. After sowing the seeds, the pots were randomly distributed (16 pots per treatment) throughout the tray and placed underneath continuous light at room temperature for 1 week. Liquid Fahräeus medium (plant fertilizer solution; see above) was applied every 2 days or when necessary. After a week, the pots were placed underneath 10 h light and 14 h dark cycle at room temperature for 1 week. After 1 week underneath 10 h light and 14 h dark cycle (2 weeks after planting), the plants were carefully removed from the pots, and as much soil as possible was shaken off. The remaining soil was removed by submerging the root system into a beaker of water. The number of primary roots (PR), lateral roots (LR), root system length (RSL) and dry weight (DW) were then measured for all plants.

As to `CC(=O)N[C@H]1[C@H](O[C@H]2[C@H](O)[C@@H](NC(C)=O)C(O)O[C@@H]2CO)O[C@H](CO)[C@@H](O[C@@H]2O[C@H](CO)[C@@H](O[C@@H]3O[C@H](CO)[C@@H](O)[C@H](O)[C@H]3NC(C)=O)[C@H](O)[C@H]2NC(C)=O)[C@@H]1O` (some centres unmarked) [CO4, tetra-N-acetylchitotetraose], the lateral root emergence result with M. truncatula is reported as “could not induce lateral root emergence”. The shoot length entry is given as “significantly increased” in the experiment with Rice [1] (day 14 after treatment), “significance was even higher” in the experiment with Rice [1] (day 18 after treatment) and “significantly increased” in the experiment on Rice [2]. Also, the root system length entry is reported as “significantly promoted” in the experiment on Rice [1] (day 18 after treatment, FIG. 12B) and “significantly increased” with Rice [2].

Take `CC(=O)N[C@H]1[C@H](O[C@H]2[C@H](O)[C@@H](NC(C)=O)[C@H](O[C@H]3[C@H](O)[C@@H](NC(C)=O)[C@H](O[C@H]4[C@H](O)[C@@H](NC(C)=O)C(O)O[C@@H]4CO)O[C@@H]3CO)O[C@@H]2CO)O[C@H](CO)[C@@H](O[C@@H]2O[C@H](CO)[C@@H](O[C@@H]3O[C@H](CO)[C@@H](O[C@@H]4O[C@H](CO)[C@@H](O[C@@H]5O[C@H](CO)[C@@H](O)[C@H](O)[C@H]5NC(C)=O)[C@H](O)[C@H]4NC(C)=O)[C@H](O)[C@H]3NC(C)=O)[C@H](O)[C@H]2NC(C)=O)[C@@H]1O` (some centres unmarked) [CO8, octa-N-acetyl-chitooctaose]: in experiment [3], the “Average Lateral Roots” value is recorded as “significantly decreased” and the “Average Primary Roots” value is “significantly decreased”.
